# Tested on: kidney tissue of g-ddY mice
# Experiment: IPA upstream regulator analysis, g-ddY kidney RNA-seq
# Conditions: 30 mg/kg/day
# [1] = ligand-dependent nuclear receptor
smiles,measurement,setting,value
"CCCCN(CCCC)C(=O)CN1C[C@H](c2ccc3c(c2)OCO3)[C@@H](C(=O)O)[C@@H]1c1ccc(OC)cc1 [atrasentan, (2R,3R,4S)-4-(1,3-benzodioxol-5-yl)-1-[2-(dibutylamino)-2-oxoethyl]-2-(4-methoxyphenyl)pyrrolidine-3-carboxylic acid]",AHR Activation z-score,[1],2.092
same,AHR Predicted Activation State,[1],Activated
same,ESR1 Activation z-score,[1],−2.439
same,ESR1 Predicted Activation State,[1],Inhibited
same,ESRRA Activation z-score,[1],2.517
same,ESRRA Predicted Activation State,[1],Activated
same,NR3C2 Activation z-score,[1],−2.191
same,NR3C2 Predicted Activation State,[1],Inhibited
same,NR4A1 Activation z-score,[1],−2.488
same,NR4A1 Predicted Activation State,[1],Inhibited
same,PPARA Activation z-score,[1],3.182
same,PPARA Predicted Activation State,[1],Activated
same,PPARG Activation z-score,[1],3.581
same,PPARG Predicted Activation State,[1],Activated
same,RXRA Activation z-score,[1],2.96
same,RXRA Predicted Activation State,[1],Activated
same,ARNT2 Activation z-score,transcription regulator,−2.079
same,ARNT2 Predicted Activation State,transcription regulator,Inhibited
same,BCL6 Activation z-score,transcription regulator,2.514
same,BCL6 Predicted Activation State,transcription regulator,Activated
same,CBX5 Activation z-score,transcription regulator,2.355
same,CBX5 Predicted Activation State,transcription regulator,Activated
same,CCND1 Activation z-score,transcription regulator,−3.003
same,CCND1 Predicted Activation State,transcription regulator,Inhibited
same,CEBPD Activation z-score,transcription regulator,−2.154
same,CEBPD Predicted Activation State,transcription regulator,Inhibited
same,CTNNB1 Activation z-score,transcription regulator,−3.373
same,CTNNB1 Predicted Activation State,transcription regulator,Inhibited
same,DACH1 Activation z-score,transcription regulator,2.354
same,DACH1 Predicted Activation State,transcription regulator,Activated
same,ECSIT Activation z-score,transcription regulator,−2.72
same,ECSIT Predicted Activation State,transcription regulator,Inhibited
same,EGR1 Activation z-score,transcription regulator,−2.766
same,EGR1 Predicted Activation State,transcription regulator,Inhibited
same,ELK1 Activation z-score,transcription regulator,−2.151
same,ELK1 Predicted Activation State,transcription regulator,Inhibited
same,ERG Activation z-score,transcription regulator,−3.672
same,ERG Predicted Activation State,transcription regulator,Inhibited
same,ETS1 Activation z-score,transcription regulator,−2.096
same,ETS1 Predicted Activation State,transcription regulator,Inhibited
same,FEV Activation z-score,transcription regulator,−3.651
same,FEV Predicted Activation State,transcription regulator,Inhibited
same,FOXC1 Activation z-score,transcription regulator,−2.563
same,FOXC1 Predicted Activation State,transcription regulator,Inhibited
same,FOXC2 Activation z-score,transcription regulator,−3.361
same,FOXC2 Predicted Activation State,transcription regulator,Inhibited
same,FOXF1 Activation z-score,transcription regulator,−2.253
same,FOXF1 Predicted Activation State,transcription regulator,Inhibited
same,FOXL2 Activation z-score,transcription regulator,−3.108
same,FOXL2 Predicted Activation State,transcription regulator,Inhibited
same,FOXM1 Activation z-score,transcription regulator,−2.307
same,FOXM1 Predicted Activation State,transcription regulator,Inhibited
same,FOXO3 Activation z-score,transcription regulator,2.338
same,FOXO3 Predicted Activation State,transcription regulator,Activated
same,GATA1 Activation z-score,transcription regulator,−3.309
same,GATA1 Predicted Activation State,transcription regulator,Inhibited
same,GFI1 Activation z-score,transcription regulator,2.82
same,GFI1 Predicted Activation State,transcription regulator,Activated
same,GPS2 Activation z-score,transcription regulator,2.51
same,GPS2 Predicted Activation State,transcription regulator,Activated
same,HIF1A Activation z-score,transcription regulator,−2.042
same,HIF1A Predicted Activation State,transcription regulator,Inhibited
same,HNF1A Activation z-score,transcription regulator,4.107
same,HNF1A Predicted Activation State,transcription regulator,Activated
same,HNF1B Activation z-score,transcription regulator,2.944
same,HNF1B Predicted Activation State,transcription regulator,Activated
same,HNF4A Activation z-score,transcription regulator,4.856
same,HNF4A Predicted Activation State,transcription regulator,Activated
same,HOXC6 Activation z-score,transcription regulator,−2.35
same,HOXC6 Predicted Activation State,transcription regulator,Inhibited
same,IKZF1 Activation z-score,transcription regulator,3.472
same,IKZF1 Predicted Activation State,transcription regulator,Activated
same,IKZF3 Activation z-score,transcription regulator,3.165
same,IKZF3 Predicted Activation State,transcription regulator,Activated
same,IRF7 Activation z-score,transcription regulator,−4.492
same,IRF7 Predicted Activation State,transcription regulator,Inhibited
same,IRF8 Activation z-score,transcription regulator,−2.577
same,IRF8 Predicted Activation State,transcription regulator,Inhibited
same,JUNB Activation z-score,transcription regulator,−3.721
same,JUNB Predicted Activation State,transcription regulator,Inhibited
same,KDM5A Activation z-score,transcription regulator,−5.858
same,KDM5A Predicted Activation State,transcription regulator,Inhibited
same,KLF2 Activation z-score,transcription regulator,2.742
same,KLF2 Predicted Activation State,transcription regulator,Activated
same,KLF4 Activation z-score,transcription regulator,−3.94
same,KLF4 Predicted Activation State,transcription regulator,Inhibited
same,KLF15 Activation z-score,transcription regulator,3.401
same,KLF15 Predicted Activation State,transcription regulator,Activated
same,KMT2A Activation z-score,transcription regulator,−2.246
same,KMT2A Predicted Activation State,transcription regulator,Inhibited
same,LHX1 Activation z-score,transcription regulator,4.214
same,LHX1 Predicted Activation State,transcription regulator,Activated
same,MECP2 Activation z-score,transcription regulator,−2.419
same,MECP2 Predicted Activation State,transcription regulator,Inhibited
same,MEF2D Activation z-score,transcription regulator,−3.056
same,MEF2D Predicted Activation State,transcription regulator,Inhibited
same,MEOX2 Activation z-score,transcription regulator,2.54
same,MEOX2 Predicted Activation State,transcription regulator,Activated
same,MESP1 Activation z-score,transcription regulator,−2.646
same,MESP1 Predicted Activation State,transcription regulator,Inhibited
same,MESP2 Activation z-score,transcription regulator,−2.449
same,MESP2 Predicted Activation State,transcription regulator,Inhibited
same,MLXIPL Activation z-score,transcription regulator,2.871
same,MLXIPL Predicted Activation State,transcription regulator,Activated
same,MRTFA Activation z-score,transcription regulator,−3.84
same,MRTFA Predicted Activation State,transcription regulator,Inhibited
same,MRTFB Activation z-score,transcription regulator,−4.734
same,MRTFB Predicted Activation State,transcription regulator,Inhibited
same,MTPN Activation z-score,transcription regulator,−2.942
same,MTPN Predicted Activation State,transcription regulator,Inhibited
same,MYCN Activation z-score,transcription regulator,4.584
same,MYCN Predicted Activation State,transcription regulator,Activated
same,Msx3 Activation z-score,transcription regulator,−2
same,Msx3 Predicted Activation State,transcription regulator,Inhibited
same,NCOA3 Activation z-score,transcription regulator,−2.143
same,NCOA3 Predicted Activation State,transcription regulator,Inhibited
same,NEUROG1 Activation z-score,transcription regulator,3
same,NEUROG1 Predicted Activation State,transcription regulator,Activated
same,NFE2L2 Activation z-score,transcription regulator,3.389
same,NFE2L2 Predicted Activation State,transcription regulator,Activated
same,NFKB1 Activation z-score,transcription regulator,−3.239
same,NFKB1 Predicted Activation State,transcription regulator,Inhibited
same,NRIP1 Activation z-score,transcription regulator,−2.267
same,NRIP1 Predicted Activation State,transcription regulator,Inhibited
same,PAX7 Activation z-score,transcription regulator,−2.883
same,PAX7 Predicted Activation State,transcription regulator,Inhibited
same,PCGF2 Activation z-score,transcription regulator,2
same,PCGF2 Predicted Activation State,transcription regulator,Activated
same,PDX1 Activation z-score,transcription regulator,−2.958
same,PDX1 Predicted Activation State,transcription regulator,Inhibited
same,PITX2 Activation z-score,transcription regulator,3.976
same,PITX2 Predicted Activation State,transcription regulator,Activated
same,PPARGC1A Activation z-score,transcription regulator,8.123
same,PPARGC1A Predicted Activation State,transcription regulator,Activated
same,PPARGC1B Activation z-score,transcription regulator,2.664
same,PPARGC1B Predicted Activation State,transcription regulator,Activated
same,PRDM1 Activation z-score,transcription regulator,2.281
same,PRDM1 Predicted Activation State,transcription regulator,Activated
same,RB1 Activation z-score,transcription regulator,4.435
same,RB1 Predicted Activation State,transcription regulator,Activated
same,REL Activation z-score,transcription regulator,−2.451
same,REL Predicted Activation State,transcription regulator,Inhibited
same,RELA Activation z-score,transcription regulator,−4.344
same,RELA Predicted Activation State,transcription regulator,Inhibited
same,RUNX3 Activation z-score,transcription regulator,3.355
same,RUNX3 Predicted Activation State,transcription regulator,Activated
same,SMAD2 Activation z-score,transcription regulator,−2.323
same,SMAD2 Predicted Activation State,transcription regulator,Inhibited
same,SMAD3 Activation z-score,transcription regulator,−2.952
same,SMAD3 Predicted Activation State,transcription regulator,Inhibited
same,SMAD4 Activation z-score,transcription regulator,−2.417
same,SMAD4 Predicted Activation State,transcription regulator,Inhibited
same,SMAD7 Activation z-score,transcription regulator,3.504
same,SMAD7 Predicted Activation State,transcription regulator,Activated
same,SMARCA4 Activation z-score,transcription regulator,−3.211
same,SMARCA4 Predicted Activation State,transcription regulator,Inhibited
same,SMYD1 Activation z-score,transcription regulator,2.213
same,SMYD1 Predicted Activation State,transcription regulator,Activated
same,SNAI1 Activation z-score,transcription regulator,−2.699
same,SNAI1 Predicted Activation State,transcription regulator,Inhibited
same,SOX4 Activation z-score,transcription regulator,−2.397
same,SOX4 Predicted Activation State,transcription regulator,Inhibited
same,SP1 Activation z-score,transcription regulator,−2.444
same,SP1 Predicted Activation State,transcription regulator,Inhibited
same,SPDEF Activation z-score,transcription regulator,4.415
same,SPDEF Predicted Activation State,transcription regulator,Activated
same,SPI1 Activation z-score,transcription regulator,−3.51
same,SPI1 Predicted Activation State,transcription regulator,Inhibited
same,SPIB Activation z-score,transcription regulator,−2.933
same,SPIB Predicted Activation State,transcription regulator,Inhibited
same,SPZ1 Activation z-score,transcription regulator,−2.022
same,SPZ1 Predicted Activation State,transcription regulator,Inhibited
same,SREBF2 Activation z-score,transcription regulator,2.277
same,SREBF2 Predicted Activation State,transcription regulator,Activated
same,SRF Activation z-score,transcription regulator,−3.269
same,SRF Predicted Activation State,transcription regulator,Inhibited
same,SRSF2 Activation z-score,transcription regulator,2.328
same,SRSF2 Predicted Activation State,transcription regulator,Activated
same,STAT1 Activation z-score,transcription regulator,−3.918
same,STAT1 Predicted Activation State,transcription regulator,Inhibited
same,STAT3 Activation z-score,transcription regulator,−4.716
same,STAT3 Predicted Activation State,transcription regulator,Inhibited
same,STAT4 Activation z-score,transcription regulator,−2.401
same,STAT4 Predicted Activation State,transcription regulator,Inhibited
same,TCF4 Activation z-score,transcription regulator,−2.836
same,TCF4 Predicted Activation State,transcription regulator,Inhibited
same,TCF7L1 Activation z-score,transcription regulator,2.373
same,TCF7L1 Predicted Activation State,transcription regulator,Activated
same,TEAD1 Activation z-score,transcription regulator,−3.036
same,TEAD1 Predicted Activation State,transcription regulator,Inhibited
same,TEAD2 Activation z-score,transcription regulator,−3.153
same,TEAD2 Predicted Activation State,transcription regulator,Inhibited
same,TEAD3 Activation z-score,transcription regulator,−3.638
same,TEAD3 Predicted Activation State,transcription regulator,Inhibited
same,TEAD4 Activation z-score,transcription regulator,−2.143
same,TEAD4 Predicted Activation State,transcription regulator,Inhibited
same,TFAP2C Activation z-score,transcription regulator,2.899
same,TFAP2C Predicted Activation State,transcription regulator,Activated
same,TFEB Activation z-score,transcription regulator,2.587
same,TFEB Predicted Activation State,transcription regulator,Activated
same,TP53 Activation z-score,transcription regulator,−3.365
same,TP53 Predicted Activation State,transcription regulator,Inhibited
same,TWIST1 Activation z-score,transcription regulator,−2.987
same,TWIST1 Predicted Activation State,transcription regulator,Inhibited
same,Tcf7 Activation z-score,transcription regulator,−3.984
same,Tcf7 Predicted Activation State,transcription regulator,Inhibited
same,XBP1 Activation z-score,transcription regulator,3.505
same,XBP1 Predicted Activation State,transcription regulator,Activated
same,YAP1 Activation z-score,transcription regulator,−4.255
same,YAP1 Predicted Activation State,transcription regulator,Inhibited

# Source: patent publication US20220304978A1, “INHIBITING MESANGIAL CELL ACTIVATION” (Chinook Therapeutics, Inc., priority 2019, published 2022)
